Laboratory results taken from ChEMBL document CHEMBL4507319 (2021).
Active and inactive are the calls of the source.

How the values were obtained:
[1] = target: Ribosomal protein S6 kinase alpha-3 (Homo sapiens, UniProt P51812)
[2] = target: Serine/threonine-protein kinase 26 (Homo sapiens) (UniProt Q9P289); assay: MST4(h) Eurofins kinase panel; settings: Compound concentration 1.0 uM
[3] = target: G protein-coupled receptor kinase 6 (Homo sapiens) (UniProt P43250); assay: GRK6(h) Eurofins kinase panel; settings: Compound concentration 1.0 uM
Sequence of G protein-coupled receptor kinase 6 (Homo sapiens) (P43250 whole entry, looked up): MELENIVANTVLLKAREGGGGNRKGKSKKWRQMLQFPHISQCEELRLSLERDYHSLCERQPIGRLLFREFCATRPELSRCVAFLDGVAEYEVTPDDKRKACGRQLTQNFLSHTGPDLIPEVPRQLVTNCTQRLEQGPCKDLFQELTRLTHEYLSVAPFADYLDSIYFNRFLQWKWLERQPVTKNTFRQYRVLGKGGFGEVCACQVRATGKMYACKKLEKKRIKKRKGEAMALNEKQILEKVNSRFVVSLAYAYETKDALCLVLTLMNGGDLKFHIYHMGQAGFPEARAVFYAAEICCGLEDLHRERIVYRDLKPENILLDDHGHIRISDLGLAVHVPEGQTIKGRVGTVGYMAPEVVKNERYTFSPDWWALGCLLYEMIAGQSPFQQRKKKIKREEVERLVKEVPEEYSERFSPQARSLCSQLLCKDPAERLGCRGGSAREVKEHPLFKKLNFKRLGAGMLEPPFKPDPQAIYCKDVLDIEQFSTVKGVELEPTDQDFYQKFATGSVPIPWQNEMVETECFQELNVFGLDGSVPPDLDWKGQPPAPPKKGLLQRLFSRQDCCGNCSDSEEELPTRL

[4] = tested on: A549; assay: A549 cell line Proliferation assay; assay type: functional, Homo sapiens; settings: time 3 day
[5] = target: Ribosomal protein S6 kinase alpha-1 (Homo sapiens, UniProt Q15418); assay: Eurofins kinase panel (RPS6KA1); set-up: compound concentration 1 uM
Sequence of Ribosomal protein S6 kinase alpha-1 (Q15418 whole entry): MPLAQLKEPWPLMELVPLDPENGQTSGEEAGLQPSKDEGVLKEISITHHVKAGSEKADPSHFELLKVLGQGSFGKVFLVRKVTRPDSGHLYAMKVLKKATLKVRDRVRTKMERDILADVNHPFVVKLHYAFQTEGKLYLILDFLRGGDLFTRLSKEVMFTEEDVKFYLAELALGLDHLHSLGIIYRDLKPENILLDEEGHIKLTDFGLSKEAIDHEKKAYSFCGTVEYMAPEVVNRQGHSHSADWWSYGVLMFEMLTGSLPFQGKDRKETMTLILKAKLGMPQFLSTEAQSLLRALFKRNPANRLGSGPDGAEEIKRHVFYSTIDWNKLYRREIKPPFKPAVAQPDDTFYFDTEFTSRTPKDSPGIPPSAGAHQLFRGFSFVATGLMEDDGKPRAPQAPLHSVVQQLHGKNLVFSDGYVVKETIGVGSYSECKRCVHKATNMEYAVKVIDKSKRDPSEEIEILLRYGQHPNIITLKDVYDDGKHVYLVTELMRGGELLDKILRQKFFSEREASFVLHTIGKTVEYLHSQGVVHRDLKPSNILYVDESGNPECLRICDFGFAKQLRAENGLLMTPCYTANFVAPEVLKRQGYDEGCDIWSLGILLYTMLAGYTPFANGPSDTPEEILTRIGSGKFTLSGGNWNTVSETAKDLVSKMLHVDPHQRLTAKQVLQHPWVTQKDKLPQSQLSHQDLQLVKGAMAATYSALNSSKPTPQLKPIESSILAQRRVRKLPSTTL

[6] = target: Wee1-like protein kinase (Homo sapiens) (UniProt P30291); assay: Wee1(h) Eurofins kinase panel; settings: Compound concentration 1.0 uM
[7] = organism: Homo sapiens; assay: CK2(h) Eurofins kinase panel; settings: Compound concentration 1.0 uM
[8] = target: Serine/threonine-protein kinase A-Raf (Homo sapiens) (UniProt P10398); assay: A-Raf(h) Eurofins kinase panel; settings: Compound concentration 1.0 uM
Sequence of Serine/threonine-protein kinase A-Raf (Homo sapiens) (P10398 whole entry): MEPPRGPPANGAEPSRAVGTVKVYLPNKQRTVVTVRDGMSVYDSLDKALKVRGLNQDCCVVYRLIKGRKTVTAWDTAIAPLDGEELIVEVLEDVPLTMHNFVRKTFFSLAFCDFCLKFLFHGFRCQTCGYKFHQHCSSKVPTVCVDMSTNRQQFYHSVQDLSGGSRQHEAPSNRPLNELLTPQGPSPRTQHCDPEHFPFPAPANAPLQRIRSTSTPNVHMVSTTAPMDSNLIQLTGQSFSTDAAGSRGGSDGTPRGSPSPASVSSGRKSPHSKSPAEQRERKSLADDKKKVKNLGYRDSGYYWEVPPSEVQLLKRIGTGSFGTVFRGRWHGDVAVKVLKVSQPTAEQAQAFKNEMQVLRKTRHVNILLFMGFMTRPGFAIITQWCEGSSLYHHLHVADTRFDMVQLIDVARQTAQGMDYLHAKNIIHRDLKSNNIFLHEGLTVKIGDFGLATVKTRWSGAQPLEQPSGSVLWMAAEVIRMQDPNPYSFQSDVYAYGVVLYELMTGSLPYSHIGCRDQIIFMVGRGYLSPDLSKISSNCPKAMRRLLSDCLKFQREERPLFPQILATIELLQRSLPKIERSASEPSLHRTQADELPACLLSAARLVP

[9] = target: T1, Calcium/calmodulin-dependent protein kinase type IV (Homo sapiens) (UniProt Q16566); assay: CaMKIV(h) Eurofins kinase panel; settings: Compound concentration 1.0 uM
T1 sequence (whole entry): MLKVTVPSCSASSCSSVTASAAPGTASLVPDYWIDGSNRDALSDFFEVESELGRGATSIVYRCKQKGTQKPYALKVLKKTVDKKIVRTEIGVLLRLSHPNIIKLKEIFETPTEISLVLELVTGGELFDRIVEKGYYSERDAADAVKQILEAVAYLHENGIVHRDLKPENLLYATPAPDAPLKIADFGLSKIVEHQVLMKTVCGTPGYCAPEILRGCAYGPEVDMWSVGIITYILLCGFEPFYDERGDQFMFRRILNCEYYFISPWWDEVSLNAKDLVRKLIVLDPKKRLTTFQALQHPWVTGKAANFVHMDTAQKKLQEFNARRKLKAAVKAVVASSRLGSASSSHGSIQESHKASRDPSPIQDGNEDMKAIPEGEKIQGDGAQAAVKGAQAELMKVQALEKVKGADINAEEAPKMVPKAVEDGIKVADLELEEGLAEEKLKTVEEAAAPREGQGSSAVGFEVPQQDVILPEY

[10] = tested on: Daudi; assay: Daudi cell line Proliferation assay; assay type: functional, Homo sapiens; settings: time 3 day
[11] = target: RAC-beta serine/threonine-protein kinase (Homo sapiens) (UniProt P31751); assay: PKBbeta (h) Eurofins kinase panel; settings: Compound concentration 1.0 uM
Sequence of RAC-beta serine/threonine-protein kinase (Homo sapiens) (P31751 whole entry): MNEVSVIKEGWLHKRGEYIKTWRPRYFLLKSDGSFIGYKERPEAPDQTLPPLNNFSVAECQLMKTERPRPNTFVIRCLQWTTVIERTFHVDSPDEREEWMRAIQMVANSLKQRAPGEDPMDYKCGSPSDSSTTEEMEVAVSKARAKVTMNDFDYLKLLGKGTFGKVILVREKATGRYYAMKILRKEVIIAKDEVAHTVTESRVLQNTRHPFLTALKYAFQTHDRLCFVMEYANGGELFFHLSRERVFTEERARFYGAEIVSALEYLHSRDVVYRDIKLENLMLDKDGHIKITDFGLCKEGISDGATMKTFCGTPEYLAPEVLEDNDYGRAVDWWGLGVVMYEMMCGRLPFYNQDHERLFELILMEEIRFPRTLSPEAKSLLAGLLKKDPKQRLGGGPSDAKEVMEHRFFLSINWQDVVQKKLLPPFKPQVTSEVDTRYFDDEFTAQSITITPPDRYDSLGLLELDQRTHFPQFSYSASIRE

[12] = target: T2, Serine/threonine-protein kinase tousled-like 1 (Homo sapiens) (UniProt Q9UKI8); assay: TLK1(h) Eurofins kinase panel; settings: Compound concentration 1.0 uM
T2 sequence (whole entry): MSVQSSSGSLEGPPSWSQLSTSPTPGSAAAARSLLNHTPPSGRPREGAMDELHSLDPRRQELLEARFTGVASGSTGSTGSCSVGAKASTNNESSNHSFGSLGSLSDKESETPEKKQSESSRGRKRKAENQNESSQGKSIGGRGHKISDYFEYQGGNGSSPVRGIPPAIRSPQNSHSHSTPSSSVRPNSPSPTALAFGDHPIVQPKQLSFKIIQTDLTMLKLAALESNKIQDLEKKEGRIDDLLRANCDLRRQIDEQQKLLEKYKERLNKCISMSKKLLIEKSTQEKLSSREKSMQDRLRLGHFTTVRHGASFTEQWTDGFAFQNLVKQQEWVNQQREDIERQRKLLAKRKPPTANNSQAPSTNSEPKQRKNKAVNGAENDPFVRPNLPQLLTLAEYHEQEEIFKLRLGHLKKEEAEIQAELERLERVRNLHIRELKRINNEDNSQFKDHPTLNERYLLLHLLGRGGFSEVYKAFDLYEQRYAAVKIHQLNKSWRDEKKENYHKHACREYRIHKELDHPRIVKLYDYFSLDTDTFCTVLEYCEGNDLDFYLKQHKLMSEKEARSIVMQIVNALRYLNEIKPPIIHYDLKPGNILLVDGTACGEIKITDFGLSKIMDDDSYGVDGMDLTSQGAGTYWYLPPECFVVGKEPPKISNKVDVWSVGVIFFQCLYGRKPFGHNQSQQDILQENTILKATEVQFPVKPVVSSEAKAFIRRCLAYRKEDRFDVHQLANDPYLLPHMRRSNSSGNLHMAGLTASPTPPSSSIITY

[13] = target: T3, NUAK family SNF1-like kinase 2 (Homo sapiens) (UniProt Q9H093); assay: NUAK2(h) Eurofins kinase panel; settings: Compound concentration 1.0 uM
T3 sequence (whole entry): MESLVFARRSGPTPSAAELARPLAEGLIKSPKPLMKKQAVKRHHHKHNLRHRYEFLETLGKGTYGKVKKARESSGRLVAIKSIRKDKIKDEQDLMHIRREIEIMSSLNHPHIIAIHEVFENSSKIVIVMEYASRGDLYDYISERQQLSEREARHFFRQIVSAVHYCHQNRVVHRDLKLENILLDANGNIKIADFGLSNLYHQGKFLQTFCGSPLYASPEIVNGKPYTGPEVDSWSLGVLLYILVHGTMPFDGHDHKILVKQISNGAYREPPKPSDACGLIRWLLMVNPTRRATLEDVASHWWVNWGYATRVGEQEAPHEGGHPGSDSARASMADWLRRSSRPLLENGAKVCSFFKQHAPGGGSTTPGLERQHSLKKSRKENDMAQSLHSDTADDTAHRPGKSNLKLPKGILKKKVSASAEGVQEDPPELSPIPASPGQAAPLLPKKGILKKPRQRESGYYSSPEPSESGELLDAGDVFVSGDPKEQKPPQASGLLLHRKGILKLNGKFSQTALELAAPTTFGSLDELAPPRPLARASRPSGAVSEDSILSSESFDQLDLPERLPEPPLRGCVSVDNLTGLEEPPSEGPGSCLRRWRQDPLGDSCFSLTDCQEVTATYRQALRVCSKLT

[14] = target: Insulin receptor (Homo sapiens) (UniProt P06213); assay: IR(h) Eurofins kinase panel; settings: Compound concentration 1.0 uM
Sequence of Insulin receptor (Homo sapiens) (P06213 28-758 limits assumed): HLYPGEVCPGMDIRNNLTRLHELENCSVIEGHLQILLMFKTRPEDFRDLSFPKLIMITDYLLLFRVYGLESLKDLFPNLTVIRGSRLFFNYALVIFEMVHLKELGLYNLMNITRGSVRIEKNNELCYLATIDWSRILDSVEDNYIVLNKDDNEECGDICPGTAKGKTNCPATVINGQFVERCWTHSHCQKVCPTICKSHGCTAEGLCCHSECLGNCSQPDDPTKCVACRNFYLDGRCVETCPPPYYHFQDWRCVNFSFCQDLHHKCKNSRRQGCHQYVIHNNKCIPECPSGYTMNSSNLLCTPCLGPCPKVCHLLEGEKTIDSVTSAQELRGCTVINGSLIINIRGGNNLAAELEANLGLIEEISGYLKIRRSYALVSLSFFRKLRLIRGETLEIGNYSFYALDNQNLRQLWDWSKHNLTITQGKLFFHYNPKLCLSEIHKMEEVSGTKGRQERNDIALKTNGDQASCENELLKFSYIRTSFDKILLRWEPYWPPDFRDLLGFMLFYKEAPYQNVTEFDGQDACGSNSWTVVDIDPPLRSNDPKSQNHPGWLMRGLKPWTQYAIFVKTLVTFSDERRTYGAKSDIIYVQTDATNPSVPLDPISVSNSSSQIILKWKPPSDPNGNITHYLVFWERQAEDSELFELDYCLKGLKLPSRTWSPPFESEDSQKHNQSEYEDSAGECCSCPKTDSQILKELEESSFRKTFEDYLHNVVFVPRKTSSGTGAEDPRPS
Sequence of Insulin receptor (Homo sapiens) (P06213 763-1382 limits assumed): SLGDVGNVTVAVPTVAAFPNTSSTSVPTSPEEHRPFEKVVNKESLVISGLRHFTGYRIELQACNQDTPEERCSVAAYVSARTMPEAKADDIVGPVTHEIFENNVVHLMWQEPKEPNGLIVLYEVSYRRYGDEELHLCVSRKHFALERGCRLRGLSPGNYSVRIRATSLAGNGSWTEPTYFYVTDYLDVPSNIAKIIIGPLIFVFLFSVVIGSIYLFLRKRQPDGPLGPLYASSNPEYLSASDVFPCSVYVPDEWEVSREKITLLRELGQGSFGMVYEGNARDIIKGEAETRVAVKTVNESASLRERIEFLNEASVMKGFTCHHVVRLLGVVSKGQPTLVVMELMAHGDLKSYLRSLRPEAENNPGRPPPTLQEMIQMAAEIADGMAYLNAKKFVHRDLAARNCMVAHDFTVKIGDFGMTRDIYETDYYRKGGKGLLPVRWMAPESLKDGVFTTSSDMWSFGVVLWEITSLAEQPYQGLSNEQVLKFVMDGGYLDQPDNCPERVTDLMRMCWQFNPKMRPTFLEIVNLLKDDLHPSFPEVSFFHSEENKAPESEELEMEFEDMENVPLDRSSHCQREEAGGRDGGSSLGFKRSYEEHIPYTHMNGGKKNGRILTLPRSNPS

[15] = target: T4, Mitogen-activated protein kinase kinase kinase 7 (Homo sapiens) (UniProt O43318); assay: TAK1(h) Eurofins kinase panel; settings: Compound concentration 1.0 uM
T4 sequence (whole entry): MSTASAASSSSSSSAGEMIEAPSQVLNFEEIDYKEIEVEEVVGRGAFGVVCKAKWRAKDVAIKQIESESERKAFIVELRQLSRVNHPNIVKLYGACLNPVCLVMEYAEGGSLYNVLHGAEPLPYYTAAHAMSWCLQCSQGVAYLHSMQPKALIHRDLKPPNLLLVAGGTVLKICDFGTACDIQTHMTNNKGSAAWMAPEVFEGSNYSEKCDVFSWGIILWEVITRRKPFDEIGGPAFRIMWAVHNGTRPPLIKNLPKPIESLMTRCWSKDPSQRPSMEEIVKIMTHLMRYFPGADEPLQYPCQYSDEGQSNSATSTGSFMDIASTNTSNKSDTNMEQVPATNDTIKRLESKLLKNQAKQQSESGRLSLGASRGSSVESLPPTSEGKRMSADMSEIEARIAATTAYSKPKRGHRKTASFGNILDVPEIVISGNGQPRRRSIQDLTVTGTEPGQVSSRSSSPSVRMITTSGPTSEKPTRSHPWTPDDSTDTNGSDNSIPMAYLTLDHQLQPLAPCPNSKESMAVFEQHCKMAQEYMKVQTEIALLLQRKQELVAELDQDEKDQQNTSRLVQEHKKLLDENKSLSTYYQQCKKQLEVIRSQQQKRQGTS

Sequence of Ribosomal protein S6 kinase alpha-3 (P51812 whole entry): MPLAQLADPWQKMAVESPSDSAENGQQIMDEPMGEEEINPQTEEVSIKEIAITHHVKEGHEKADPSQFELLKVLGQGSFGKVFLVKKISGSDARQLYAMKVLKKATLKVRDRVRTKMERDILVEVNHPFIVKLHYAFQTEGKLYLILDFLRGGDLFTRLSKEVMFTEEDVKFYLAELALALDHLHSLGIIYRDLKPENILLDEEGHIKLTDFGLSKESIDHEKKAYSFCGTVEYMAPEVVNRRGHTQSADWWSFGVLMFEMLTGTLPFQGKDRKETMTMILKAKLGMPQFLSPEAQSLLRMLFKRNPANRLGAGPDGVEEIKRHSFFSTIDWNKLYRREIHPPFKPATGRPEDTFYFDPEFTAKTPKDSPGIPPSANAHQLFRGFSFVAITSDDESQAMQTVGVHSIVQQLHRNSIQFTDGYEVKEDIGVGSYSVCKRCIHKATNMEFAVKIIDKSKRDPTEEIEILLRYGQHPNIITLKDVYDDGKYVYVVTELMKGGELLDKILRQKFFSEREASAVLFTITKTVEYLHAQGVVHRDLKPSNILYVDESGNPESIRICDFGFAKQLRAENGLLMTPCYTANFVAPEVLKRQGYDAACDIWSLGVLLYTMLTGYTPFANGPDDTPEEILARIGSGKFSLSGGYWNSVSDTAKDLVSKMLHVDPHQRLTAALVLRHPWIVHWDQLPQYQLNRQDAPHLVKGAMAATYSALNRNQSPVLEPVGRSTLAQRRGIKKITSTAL
Sequence of Serine/threonine-protein kinase 26 (Homo sapiens) (Q9P289 2-416 limits assumed): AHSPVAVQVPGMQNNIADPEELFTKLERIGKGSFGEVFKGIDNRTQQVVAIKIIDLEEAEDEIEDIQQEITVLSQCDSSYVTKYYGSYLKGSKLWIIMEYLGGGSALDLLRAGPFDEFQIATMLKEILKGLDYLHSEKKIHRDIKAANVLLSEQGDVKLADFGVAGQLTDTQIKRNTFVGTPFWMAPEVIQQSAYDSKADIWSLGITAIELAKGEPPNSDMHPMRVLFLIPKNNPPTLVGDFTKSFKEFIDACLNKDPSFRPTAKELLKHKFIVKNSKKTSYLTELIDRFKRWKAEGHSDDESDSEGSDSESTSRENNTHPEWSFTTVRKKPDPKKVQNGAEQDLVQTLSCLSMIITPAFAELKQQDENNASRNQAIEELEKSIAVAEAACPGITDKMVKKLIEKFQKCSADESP

CCc1ccccc1C(=O)Nc1n[nH]c2c(C)c(F)c(C3C(C#N)=C(C)N(C)C(C)=C3C#N)cc12 [BAY-3827]
22900 nM: Cell Proliferation IC50 [10]
52 nM: IC50 [1]
25800 nM: Cell Proliferation IC50 [4]
inactive: % residual kinase activity [2] 84% | % residual kinase activity [3] 96% | % residual kinase activity [6] 96% | % residual kinase activity [7] 94% | % residual kinase activity [8] 78% | % residual kinase activity [9] 111% | % residual kinase activity [11] 105% | % residual kinase activity [12] 103% | % residual kinase activity [13] 45% | % residual kinase activity [14] 115% | % residual kinase activity [15] 104%
active: IC50 [5] 9.1 nM
